Assay results from PMC11645656, “MRGPRX4 mediates phospho-drug associated pruritus in a humanized mouse model” (Science translational medicine, 2024).
“And” between values parts separate entries of the source, which are not always exact repeats. Equal values may be shown once. Read-outs that look alike come from different tables or passages of the source. Blank lines part the entries; values can stand above or below the compound they belong to.

Columns and labels:
[1] = target: MRGPRX4 S83L (L83) (Homo sapiens, UniProt Q96LA9); assay: Calcium mobilization assay (FLIPR), S83L MRGPRX4 transiently expressed in HEK293T cells; type: cell-based; parameters: expressed in transfected cells; host or cells: HEK293T, transient; details: Fig. 4E, unit not in the head, taken from Concentration (M) of the sheet and pEC50 [M] of Fig. 4E, read-out: EC50s (each well represents individual experiment)
Description: (§1) Fig. 4. […] Hydrogen bond is shown as cyan dashed lines. […] Data are from three independent experiments, performed in triplicate. (E) pEC50 plots of various agonists toward S83- and L83-MRGPRX4 through calcium mobilization assay. […] Each data point represents an independent experiment, performed in triplicate. The extra sum-of-square F test was used to examine the difference in EC50 values. One-sided t-test was used for nateglinide. *p< 0.05, **p< 0.01 and ***p< 0.001. ns = no statistical significance. Both (D) and (E) are reported as the mean ± SEM. N.D.= no detectable response ≤ 100 μM.
(§2) HEK293 cells and MRGPRX4 stably expressed HEK293 cells were seeded in 100 μl culture media on 96-well plates at a density of 40,000 cells per well and incubated overnight. The next day, the media were replaced with a dye-loading solution from the FLIPR Calcium 5 assay kit (Molecular Devices), diluted in Hank's Balanced Salt Solution (HBSS) with 20 mM HEPES, pH 7.4. After 1 h of incubation at 37°C, cells were allowed to recover for 10 min in the dark at room temperature prior to performing intracellular calcium mobilization assay in a Flexstation-3 instrument with SoftMax®Pro 7.1 software (Molecular Devices). Serial concentrations of tested drugs were prepared in HBSS/HEPES solution at 3X concentration. […] Compounds were tested in triplicates and the signals were averaged. Responses were determined by subtracting the minimum signal (at the baseline before adding the drug) from the maximum signal (obtained after drug stimulation). Four-parameter logistic (4PL) curve fit was used to plot the dose-response curves. […] Both dose-response curve fitting and EC50s calculation are computed with GraphPad Prism software (version: 6.o or above).
(§3) To generate murine Mrgprs expressing cells, HEK293T cells (ATCC) were seeded on poly-D-lysine coated 96 well plate at 25,000 cells per well one day prior to transfection. HEK293T cells were transiently co-transfected with the mammalian expression plasmids carrying cDNA encoding the murine Mrgpr genes and plasmid inserted with cDNA encoding murine α-subunit of the heterotrimeric G15 protein (Gα15) in triplicates using Lipofectamine LTX reagents (Thermo Scientific). To generate WT, S83L, and alanine mutant MRGPRX4-expressing cells, HEK293T cells were seeded on poly-D-lysine coated 384 well plate at 12,000 cells per well one day prior to transfection. Mammalian expression plasmids pLX304 (vector from Addgene) carrying different MRGPRX4 coding sequences were transiently transfected into HEK293T cells in triplicates with Lipofectamine LTX reagents (Thermo Scientific). Intracellular calcium mobilization assays were performed after one day of transfection. Murine Mrgprs tested include Mrgpra1, Mrgpra2a, Mrgpra2b, Mrgpra3, Mrgpra4, Mrgpra6, Mrgpra9, Mrgpra10, Mrgpra11, Mrgpra12, Mrgpra14, Mrgprb5, Mrgprb6, Mrgprb10, Mrgprb11, and Mrgprc11. WT and mutant MRGPRX4 constructs tested include WT, S83L, R82A, R86A, R95A, W158A, Y250A, and Y254A.

[2] = target: MRGPRX4 WT (S83) (Homo sapiens, UniProt Q96LA9, L83S); assay: Calcium mobilization assay (FLIPR), WT (S83) MRGPRX4 transiently expressed in HEK293T cells; type: cell-based; parameters: expressed in transfected cells; host or cells: HEK293T, transient; details: for fig. S8 response (normalized), concentration-response: WT, single replicate; for Potency at S83- vs L83-MRGPRX4: calcium mobilization, compared with S83L (A17)
Description: as §1, §2, §3

[3] = test system: NP2-X4+ mice (MRGPRX4 in Mrgpra3+ NP2 sensory neurons); assay: Itch behavioral study (scratching bouts after subcutaneous nape injection) in NP2-X4+ mice; type: in vivo, mouse
[4] = test system: NP2-WT mice; assay: Itch behavioral study (scratching bouts after subcutaneous nape injection) in littermate control NP2-WT mice; type: in vivo; details: 30 min after injection of 50 μl 10 mM into the nape, each cell one mouse
Description: Fig. 2. Phosphate monoester prodrugs induce itch in NP2-MRGPRX4+ mice through activating NP2 primary sensory neurons. (A) Mating strategy to generate NP2-X4+ mice. (B) In situ hybridization showing MRGPRX4 transcripts (magenta) in NP2-X4+ DRG as indicated by arrowheads (left) but not in littermate control NP2-WT (right). NP2 subpopulation accounts for 5% of total DRG neurons. DAPI, blue. Scale bar, 50 μm. […] . Data are expressed as mean ± SEM. *p< 0.05, **p< 0.01 and ***p< 0.001 by two-tailed unpaired Student’s t-test. ns = no statistical significance observed. (D and E) Traces of average (top, depicted as mean ± 95% confidence interval) and individual (bottom, reflected by the heatmap) calcium activity, measured by fluorescence intensity normalized to the baseline intensity (FT/F0) over time of NP2-X4+ (D) and NP2-WT (E) DRG neurons labelled with GCaMP6s (n = 110–150 neurons pooled from 3–7 independent culture vessels from 2–4 mice in each condition). 10 μM phospho-drugs and 1 mM CQ were added as indicated by the arrowheads. Neurons with FT/F0 > 1.5 after compound application were considered a positive responder. NP2-X4+: NP2-MRGPRX4+; DRG, dorsal root ganglia; CQ: chloroquine.
. All the animals used were heterozygous unless otherwise specified. NP2-X4+ and NP2-WT littermates were generated by crossing Mrgpra3-Cre to Rosa26-lsl-MRGPRX4 as detailed previously ([15]). NP2-X4+ mice were further crossed to homozygous Rosa26-lsl-GCaMP6s to obtain NP2-WT/GCaMP6s and NP2-X4+/GCaMP6s animals. A detailed mating strategy is illustrated in fig. S5. Pirt-Cre-GCaMP6s animals were acquired by crossing Pirt-Cre to homozygous Rosa26-lsl-GCaMP6s. Pirt-Cre animals were generated through homologous recombination as indicated previously ([37]). Rosa26-lsl-GCaMP6s mouse line was provided by Dr. Dwight Bergles’ lab at the Johns Hopkins School of Medicine.

[5] = target: T1, MRGPRX4 (S83) (Homo sapiens, UniProt Q96LA9, L83S); assay: EC50 determination, intracellular calcium mobilization in MRGPRX4 stably expressed HEK293 cells (FLIPR Calcium 5, Flexstation-3); type: cell-based; parameters: Fig. 1D dose-response, calcium mobilization response (individual replicate) / calcium mobilization response (Fig. 1D dose-response raw data): unit not given here
T1 construct: expressed in transfected cells
How it was run: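 HEK293 cells stably expressing receptor (parental HEK293 alongside) loaded with Calcium 5 dye in HBSS/20 mM HEPES, pH 7.4, 1 h at 37 °C, then compounds added. Response = peak minus pre-drug baseline, triplicates averaged; EC50 from 4PL fit.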

Sequence of MRGPRX4 S83L (L83) (Q96LA9 whole entry, stated change not applied): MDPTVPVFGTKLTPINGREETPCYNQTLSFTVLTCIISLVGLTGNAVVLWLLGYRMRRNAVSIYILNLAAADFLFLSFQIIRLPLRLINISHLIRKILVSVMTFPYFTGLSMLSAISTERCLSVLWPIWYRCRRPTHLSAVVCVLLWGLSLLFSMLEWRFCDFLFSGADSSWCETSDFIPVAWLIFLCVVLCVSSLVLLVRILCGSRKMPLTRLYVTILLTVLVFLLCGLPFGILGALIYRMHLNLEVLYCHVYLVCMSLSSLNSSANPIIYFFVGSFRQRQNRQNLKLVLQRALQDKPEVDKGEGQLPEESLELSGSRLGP
Sequence of MRGPRX4 WT (S83) (Q96LA9 whole entry L83S): as the sequence (Q96LA9 whole entry, stated change not applied) above, with L83S counted along it
T1 sequence (Q96LA9 whole entry L83S): as the sequence (Q96LA9 whole entry, stated change not applied) above, with L83S counted along it

SMILES: C[C@]12CC3CC(C(=O)N[C@H](Cc4ccccc4)C(=O)O)(C1)C[C@@](C)(C3)C2 [MS47134]
EC50 [1]: 2.33e-07 M and 2.26e-07 M and 1.83e-07 M
EC50 ([2]; WT (S83), Fig. 4E, unit not in the head, taken from Concentration (M) of the sheet and pEC50 [M] of Fig. 4E, read-out: EC50s (each well represents individual experiment)): 1e-05 M and 9.11e-06 M and 5.25e-06 M
fig. S8 response (normalized), concentration-response ([2]; 188.2 pM): 11.5885 and 10.879 and 5.439 and 5.904 and 6.997 and 13.1195 and 4.054
fig. S8 response (normalized), concentration-response ([2]; 564.5 pM): 1.419 and 2.1285 and 14.19 and 0.656 and -3.499 and 16.1808 and 2.837 and 3.081
fig. S8 response (normalized), concentration-response ([2]; 1.69351e-9 M): 13.717 and 21.0485 and 8.041 and 7.872 and 6.341 and 14.6502 and 17.1869 and 20.1054
fig. S8 response (normalized), concentration-response ([2]; 5.08053e-9 M): 10.406 and 7.095 and 9.933 and 10.7143 and 1.312 and 11.3703 and 16.214 and 17.6733
fig. S8 response (normalized), concentration-response ([2]; 1.52416e-8 M): 16.555 and 11.5885 and 5.439 and 11.8076 and 1.749 and 16.6181 and 8.6745 and 13.0523
fig. S8 response (normalized), concentration-response ([2]; 4.57247e-8 M): 20.1025 and 15.609 and 18.447 and 12.2449 and 9.84 and 19.0233 and 11.1066
fig. S8 response (normalized), concentration-response ([2]; 1.37174e-7 M): 23.177 and 26.015 and 20.1025 and 11.3703 and 12.9009 and 13.1195 and 23.7536
fig. S8 response (normalized), concentration-response ([2]; 4.11523e-7 M): 18.92 and 25.069 and 17.2645 and 15.0875 and 10.7143 and 17.93 and 19.3758 and 16.214
fig. S8 response (normalized), concentration-response ([2]; 1.23457e-6 M): 24.3595 and 15.8455 and 8.041 and 11.5889 and 9.621 and 14.4315 and 14.7548 and 20.5918
fig. S8 response (normalized), concentration-response ([2]; 3.7037e-6 M): 23.8865 and 16.3185 and 10.879 and 20.3353 and 21.8659 and 19.0233 and 22.7807 and 20.3486
fig. S8 response (normalized), concentration-response ([2]; 1.11111e-5 M): 45.6445 and 43.516 and 42.3335 and 43.5131 and 43.9504 and 44.6064 and 52.9388 and 53.9116
fig. S8 response (normalized), concentration-response ([2]; 3.33333e-5 M): 61.017 and 69.0579 and 61.4432 and 62.3178 and 54.6647 and 48.561 and 41.5079
fig. S8 response (normalized), concentration-response ([2]; 0.0001 M): 60.544 and 75.4434 and 62.6724 and 56.414 and 74.7813 and 68.4402 and 77.9895 and 57.3166
Potency at S83- vs L83-MRGPRX4 [2]: the L83 allele, as previously reported, exhibited greater potency and efficacy

SMILES: CC(=O)OCC(=O)[C@@]1(O)[C@H](C)C[C@H]2[C@@H]3CCC4=CC(=O)C=C[C@]4(C)[C@@]3(F)[C@@H](O)C[C@@]21C [Dexamethasone acetate]
Itch in both NP2-X4+ and littermate WT controls ([3]; 50 μl 10 mM nape injection): slightly elevated itch
Scratching / itch behavior, NP2-X4+ mice vs WT littermates ([3]; 50 μl 10 mM nape injection, 30 min): no differences in itch behavior were detected
Scratching bouts of individual animals ([3]; NP2-X4+, 30 min after injection of 50 μl 10 mM into the nape, each cell one mouse): 0 and 26 and 59 and 22 and 2 and 3 and 9 (2×) and 20
Scratching bouts of individual animals [4]: 20 and 31 and 30 and 18 and 14 and 9 and 75 and 34 and 3
Fig. 1D dose-response, calcium mobilization response (individual replicate) ([5]; Concentration 9.76563e-7 M): -48.502 and -46.356 and -48.988 and -43.676 and -48.158 and -43.385 and -85.123 and -4.652 and -42.229
Fig. 1D dose-response, calcium mobilization response (individual replicate) ([5]; Concentration 1.95313e-6 M): -22.164 and -36.691 and -35.570 and -37.729 and -34.474 and -34.794 and -19.078 and -53.999 and -20.889
Fig. 1D dose-response, calcium mobilization response (individual replicate) ([5]; Concentration 3.90625e-6 M): -39.055 and -53.135 and -70.767 and -48.544 and -36.360 and -36.045 and -91.099 and -38.430 and -1.751
Fig. 1D dose-response, calcium mobilization response (individual replicate) ([5]; Concentration 7.8125e-6 M): -33.331 and -71.560 and -49.660 and -45.756 and -42.005 and -31.885 and -29.162 and -70.876 and -31.653
Fig. 1D dose-response, calcium mobilization response (individual replicate) ([5]; Concentration 1.5625e-5 M): -37.387 and -60.340 and -52.439 and -33.449 and -38.008 and -34.728 and -69.819 and -42.708 and -12.221
Fig. 1D dose-response, calcium mobilization response (individual replicate) ([5]; Concentration 3.125e-5 M): -47.434 and -56.549 and -63.778 and -43.258 and -41.889 and -38.256 and -62.786 and -46.904 and -33.452
Fig. 1D dose-response, calcium mobilization response (individual replicate) ([5]; Concentration 6.25e-5 M): -61.858 and -50.883 and -76.723 and -47.363 and -44.877 and -37.522 and -10.190 and -37.194 and -110.631
Fig. 1D dose-response, calcium mobilization response (individual replicate) ([5]; Concentration 0.00025 M): -64.043 and -50.303 and -56.027 and -44.560 and -42.575 and -45.473 and -89.145 and -53.447 and -8.636
Fig. 1D dose-response, calcium mobilization response (individual replicate) ([5]; Concentration 0.0005 M): -48.359 and -6.029 and -35.851 and -38.822 and -45.234 and -19.021 and -30.402 and -28.831 and -36.978
Fig. 1D dose-response, calcium mobilization response (individual replicate) ([5]; Concentration 0.001 M): -37.786 and -38.347 and -50.572 and -37.033 and -22.575 and -15.877 and -9.453 and -18.673 and -62.758

EC50 [1]: 1.04e-06 M and 7.61e-07 M and 9.29e-07 M
EC50 ([2]; S83-MRGPRX4, Fig. 4E, read-out: pEC50 (converted)): > 0.0001 M
fig. S8 response (normalized), concentration-response ([2]; 1.52416e-8 M): 11.8843
fig. S8 response (normalized), concentration-response ([2]; 4.11523e-7 M): 16.3409
fig. S8 response (normalized), concentration-response ([2]; 1.23457e-6 M): 15.4027
SMILES: CC(C)[C@H]1CC[C@H](C(=O)N[C@H](Cc2ccccc2)C(=O)O)CC1 [Nateglinide]
Potency at S83- vs L83-MRGPRX4 [2]: the L83 allele, as previously reported, exhibited greater potency and efficacy
